Patent publication US11578055B2, “Triazacyclododecansulfonamide (“TCD”)-based protein secretion inhibitors” (KEZAR LIFE SCIENCES, priority 2018, dated 2023)
Where a name gives a salt, the structure may show the parent alone. Read-outs that look alike come from different tables or passages of the source.

Tests used:
[1] = In Vitro Microsome Stability Assay (human); type: in vitro ADME
Experimental: (§1) Potassium phosphate (423 μL of a 0.1 M solution) was added to 8-strip deep well tubes followed by human, mouse, rat, or monkey microsomes (25 μL of a 20 mg/mL solution). The tubes were then placed on ice and the test article (2 μL of a 0.25 mM solution in DMSO) was added. The mixture was preincubated at 37° C. for 3 to 5 minutes (shaking at 150 rpm) then the reaction was initiated by adding 50 μL NADPH. An aliquot of samples (100 μL) were collected at 0 and 30 min and 200 μL of an acetonitrile mixture containing IS (compound 914) was added to quench the reaction. After centrifuging for 10 min at 4000 rpm, a mixed solution of the 20 μL of the supernatant (20 μL) plus 100 μL ACN/H2O (1:1) were injected for LC-MS/MS analysis. Liver microsome stability is assessed by the % remaining of compound at 30 min which is calculated using the following equation: [(AUCanalyteT=30/AUCIS)/(AUCanalyteT=0/AUCIS)]*100
(§2) For chemical structures that include one or more stereoisomers, but are illustrated without indicating stereochemistry, the assay data refers to a mixture of stereoisomers.

[2] = tested on: full length TNFα (amino acids 1-233) fused to Gaussia Luciferase; assay: Dox Induced TNFα-FL-Gluc Assay; type: cell-based; details: 24 hr, read-out: 24 hr Dox Inducible TNFaFLGluc 293FRT/TO: Mean IC50
Excerpt: (§3) FIp-In 293 T-REx™ cells were transfected with pcDNA™5/FRT/TO plasmid inserted with cDNA encoding Gaussia Luciferase fused to the 3′ end of cDNA encoding full length TNFα (amino acids 1-233). Transfected cells were selected for resistance to the selectable markers Hygromycin and Blasticidin to create a stable cell line that contained the TNFα-FL/Gaussia Luciferase cDNA insert whose expression was regulated under the T-REx™ system. The day before assay, cells were trypsinized and plated in 384-well tissue culture plates. The next day, compound dilutions in DMSO/media containing doxycycline were added to the wells and incubated at 37° C., 5% CO2.
as §2

[3] = In Vitro Microsome Stability Assay (monkey); type: in vitro ADME
Experimental: as §1, §2

[4] = tested on: PD1 signal sequence plus 10 amino acids fused to Gaussia Luciferase (PD1-ss+10aa/Gaussia Luciferase); assay: Dox Induced PD1-ss-Gluc Assay; type: cell-based; details: 24 hr, read-out: 24 hr Dox Inducible PD1ssGluc 293FRT/TO: Mean IC50
Excerpt: as §3, with “PD1 signal sequence plus 10 amino” for “full length TNFα (amino”, “(N-[…]-C) (SEQ ID NO: 1).” for “1-233).”, “PD1-ss+10aa/Gaussia” for “TNFα-FL/Gaussia”
as §2

[5] = In Vitro Microsome Stability Assay (rat); type: in vitro ADME
Experimental: as §1, §2

[6] = In Vitro Microsome Stability Assay (mouse); type: in vitro ADME
Experimental: as §1, §2

[7] = tested on: multiple myeloma cell line U266B1; assay: U266 Cell Viability Assay; type: cell-based, human; details: Homo sapiens, U-266, 48 hr
Experimental: (§4) The human multiple myeloma cell line U266B1 was cultured in RPMI 1640 media supplemented with 10% fetal bovine serum, 2 mM Glutamine, and 1× Penicillin/Streptomycin. Cells were plated in 384-well tissue culture plates and treated with compound dilutions in DMSO/media. Plates were incubated at 37° C., 5% CO2 for 48 hours. After 48 hours, Celltiter-Glo® (Promega) was added to each well and luciferase signal was quantified using Tecan Infinite M1000 Pro for cell viability determination.
For chemical structures that include one or more stereoisomers, but are illustrated without indicating stereochemistry, the assay data refers to a mixture of stereoisomers

[8] = tested on: multiple myeloma cell line NCl-H929; assay: H929 Cell Viability Assay; type: cell-based, human; details: Homo sapiens, NCI-H929, 48 h
Experimental: as §4, with “NCl-H929” for “U266B1”, “cultured in Advanced RPMI 1640 media (Gibco®) supplemented with 6% fetal bovine serum, 2 mM Glutamine, and 1× Penicillin/Streptomycin. On the day of assay, cells were resuspended” for “cultured”, “Penicillin/Streptmycin and” for “Penicillin/Streptomycin. Cells were”
as §2

[9] = U266, read-out: 48 hr U266 Viability Celltiter-Glo: Mean EC50
[10] = H929, read-out: 48 hr H929 Viability Celltiter-Glo: Mean EC50

SMILES | Liver Microsome Stability-% Left after 30 min w/ NADPH (%) Human ([1]; human, 30 min, NADPH) [%] | IC50 ([2]; 293FRT/TO) [µM] | Liver Microsome Stability-% Left after 30 min w/ NADPH (%) Monkey ([3]; monkey, 30 min, NADPH) [%] | IC50 ([4]; 293FRT/TO) [µM] | Liver Microsome Stability-% Left after 30 min w/ NADPH (%) Rat ([5]; rat, 30 min, NADPH) [%] | Liver Microsome Stability-% Left after 30 min w/ NADPH (%) Mouse ([6]; mouse, 30 min, NADPH) [%] | EC50 [7, 9] [µM] | EC50 [8, 10] [µM] | Liver Microsome Stability-% Left after 30 min w/ NADPH (%) Human ([1]; human liver microsomes, 30 min w/ NADPH) [%] | IC50 ([2]; Dox inducible, 293FRT/TO cells) [µM] | Liver Microsome Stability-% Left after 30 min w/ NADPH (%) Monkey ([3]; monkey liver microsomes, 30 min w/ NADPH) [%] | IC50 ([4]; Dox inducible, 293FRT/TO cells) [µM] | Liver Microsome Stability-% Left after 30 min w/ NADPH (%) Rat ([5]; rat liver microsomes, 30 min w/ NADPH) [%] | Liver Microsome Stability-% Left after 30 min w/ NADPH (%) Mouse ([6]; mouse liver microsomes, 30 min w/ NADPH) [%] | EC50 ([7]; U266, Celltiter-Glo) [µM] | EC50 ([8]; H929, Celltiter-Glo) [µM]
CN(C)c1ccc(S(=O)(=O)N2CCCN(CC3CCCCC3)CCCN(S(=O)(=O)N3CCC(C)(C)CC3)CC3(CC3)C2)cc1 [A26, 4-{[9-(cyclohexylmethyl)-13-[(4,4-dimethylpiperidin-1-yl)sulfonyl]-5,9,13-thazaspiro[2.11]tetradecan-5-yl]sulfonyl}-N,N-dimethylaniline] | 6.65 | > 25 | 0.13 | 0.224 | 1.84 | 3.4 | > 25 | 16.1 | – | – | – | – | – | – | – | –
CN(C)c1ccc(S(=O)(=O)NCCCN(CCCNS(=O)(=O)N2CCC(c3ccccc3)CC2)CC2CCCCC2)cc1 [B7, N-{3-[(cyclohexylmethyl)(3-{[(4-phenylpiperidin-1-yl)sulfonyl]amino}propyl)amino]propyl}-4-(dimethylamino)benzene-1-sulfonamide] | – | – | – | – | – | – | – | – | 0.03 | 24.3 | 0.04 | 6.9 | 0.58 | 1.47 | 7.48 | 6.86
C=C1CN(S(=O)(=O)c2ccc(N(C)C)cc2)CCCN(CC2CCCCC2)CCCN(S(=O)(=O)N2CCc3cc(OC)ccc3C2)C1 [A71, 4-{[9-(cyclohexylmethyl)-5-[(6-methoxy-1,2,3,4-tetrahydroisoquinolin-2-yl)sulfonyl]-3-methylidene-1,5,9-triazacyclododecan-1-yl]sulfonyl}-N,N-dimethylaniline] | 5.55 | 2.01 | 6.75 | 0.0633 | 17.2 | 11.5 | > 25 | 7.72 | – | – | – | – | – | – | – | –
CN(C)c1ccc(S(=O)(=O)N2CCCN(CC3CCCCC3)CCCN(S(=O)(=O)N3CCCC3)CC3(CC3)C2)cc1 [A23, 4-{[9-(cyclohexylmethyl)-13-(pyrrolidine-1-sulfonyl)-5,9,13-triazaspiro[2.11]tetradecan-5-yl]sulfonyl}-N,N-dimethylaniline] | 0.04 | > 25 | 0.03 | 0.759 | 0.13 | 0.17 | > 25 | > 25 | – | – | – | – | – | – | – | –
CN(C)c1ccc(S(=O)(=O)N2CCCN(CC3CCCCC3)CCCN(S(=O)(=O)N3CCCCCC3)CC3(CC3)C2)cc1 [A25, 4-{[13-(azepane-1-sulfonyl)-9-(cyclohexylmethyl)-5,9,13-triazaspiro[2.11]tetradecan-5-yl]sulfonyl}-N,N-dimethylaniline] | 0.12 | > 25 | 0.2 | 0.435 | 4.16 | 0.32 | > 25 | > 25 | – | – | – | – | – | – | – | –
C=C1CN(S(=O)(=O)c2ccc(N(C)C)cc2)CCCN(CC2CCCCC2)CCCN(S(=O)(=O)N2CC=C(C3=CCCC3)CC2)C1 [A67, 4-{[9-(cyclohexylmethyl)-5-{[4-(cyclopent-1-en-1-yl)-1,2,3,6-tetrahydropyridin-1-yl]sulfonyl}-3-methylidene-1,5,9-triazacyclododecan-1-yl]sulfonyl}-N,N-dimethylaniline] | 33.2 | 0.937 | 27.6 | 0.0408 | 45.4 | 28 | > 25 | 2.4 | – | – | – | – | – | – | – | –

Now from value to molecule:

Liver Microsome Stability-% Left after 30 min w/ NADPH (%) Human ([1]; human, 30 min, NADPH) [%] | IC50 ([2]; 293FRT/TO) [µM] | Liver Microsome Stability-% Left after 30 min w/ NADPH (%) Monkey ([3]; monkey, 30 min, NADPH) [%] | IC50 ([4]; 293FRT/TO) [µM] | Liver Microsome Stability-% Left after 30 min w/ NADPH (%) Rat ([5]; rat, 30 min, NADPH) [%] | Liver Microsome Stability-% Left after 30 min w/ NADPH (%) Mouse ([6]; mouse, 30 min, NADPH) [%] | EC50 [7, 9] [µM] | EC50 [8, 10] [µM] | Liver Microsome Stability-% Left after 30 min w/ NADPH (%) Human ([1]; human liver microsomes, 30 min w/ NADPH) [%] | IC50 ([2]; Dox inducible, 293FRT/TO cells) [µM] | Liver Microsome Stability-% Left after 30 min w/ NADPH (%) Monkey ([3]; monkey liver microsomes, 30 min w/ NADPH) [%] | IC50 ([4]; Dox inducible, 293FRT/TO cells) [µM] | Liver Microsome Stability-% Left after 30 min w/ NADPH (%) Rat ([5]; rat liver microsomes, 30 min w/ NADPH) [%] | Liver Microsome Stability-% Left after 30 min w/ NADPH (%) Mouse ([6]; mouse liver microsomes, 30 min w/ NADPH) [%] | EC50 ([7]; U266, Celltiter-Glo) [µM] | EC50 ([8]; H929, Celltiter-Glo) [µM] | SMILES
0.04 | > 25 | 0.05 | > 25 | 0.11 | 0.05 | 15.5 | > 25 | – | – | – | – | – | – | – | – | O=S(=O)(N1CCCCC1)N1CCCN(Cc2ccccc2)CCCN(S(=O)(=O)N2CCCCC2)CC2(CC2)C1 [A18, 9-benzyl-5,13-bis(piperidin-1-ylsulfonyl)-5,9,13-triazaspiro[2.11]tetradecane hydrochloride]
0.65 | 1.47 | 0.1 | 0.025 | 0.1 | 0.04 | > 25 | 0.987 | – | – | – | – | – | – | – | – | C=C1CN(S(=O)(=O)c2ccc(N(C)C)cc2)CCCN(CC2CCCCC2)CCCN(S(=O)(=O)N2CCCCC2)C1 [A13, 4-{[9-(cyclohexylmethyl)-3-methylidene-5-(piperidine-1-sulfonyl)-1,5,9-triazacyclododecan-1-yl]sulfonyl}-N,N-dimethylaniline]
8.26 | > 25 | 5.69 | 0.202 | 13.5 | 6.03 | > 25 | > 25 | – | – | – | – | – | – | – | – | C=C1CN(S(=O)(=O)c2ccc(N(C)C)cc2)CCCN(CC2CCCCC2)CCCN(S(=O)(=O)N2CCC(Oc3ccccc3)CC2)C1 [A37, 4-{[9-(cyclohexylmethyl)-3-methylidene-5-[(4-phenoxypiperidin-1-yl)sulfonyl]-1,5,9-triazacyclododecan-1-yl]sulfonyl}-N,N-dimethylaniline]
11.4 | 5.49 | 9.04 | 0.0751 | 24.2 | 12.6 | > 25 | > 11.8 | – | – | – | – | – | – | – | – | C=C1CN(S(=O)(=O)c2ccc(N(C)C)cc2)CCCN(CC2CCCCC2)CCCN(S(=O)(=O)N2CCCC(c3ccccc3)C2)C1 (centres unmarked) [A38, 4-{[9-(cyclohexylmethyl)-3-methylidene-5-[(3-phenylpiperidin-1-yl)sulfonyl]-1,5,9-triazacyclododecan-1-yl]sulfonyl}-N,N-dimethylaniline]
